Data: publication PMC11088877, “AMP-activated protein kinase can be allosterically activated by ADP but AMP remains the key activating ligand” (Biochemical Journal, 2024)
Values joined by “and” are separate entries in the source; they are usually repeats but may differ in a detail not shown here. Equal entries are not always repeated.

What was measured:
[1] = molecular target: T1, human α2β2γ1 complex, CBS1 mutant (L129D/V130D) (Homo sapiens, UniProt P54619+P54646, L129D/V130D); assay: Allosteric activation of CBS1 mutant human α2β2γ1 AMPK complex; format: biochemical
T1 construct: made in house; host or cells: Escherichia coli
T1 sequence (P54619 whole entry L129D/V130D): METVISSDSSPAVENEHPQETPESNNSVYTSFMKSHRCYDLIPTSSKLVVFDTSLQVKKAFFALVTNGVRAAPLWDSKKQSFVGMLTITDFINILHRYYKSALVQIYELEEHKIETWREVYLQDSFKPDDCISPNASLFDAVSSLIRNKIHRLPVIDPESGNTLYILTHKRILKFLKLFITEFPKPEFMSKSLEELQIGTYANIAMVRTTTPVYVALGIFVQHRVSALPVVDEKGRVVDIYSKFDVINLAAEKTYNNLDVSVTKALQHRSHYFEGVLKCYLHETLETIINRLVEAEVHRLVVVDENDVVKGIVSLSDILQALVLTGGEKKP
T1 sequence (P54646 whole entry): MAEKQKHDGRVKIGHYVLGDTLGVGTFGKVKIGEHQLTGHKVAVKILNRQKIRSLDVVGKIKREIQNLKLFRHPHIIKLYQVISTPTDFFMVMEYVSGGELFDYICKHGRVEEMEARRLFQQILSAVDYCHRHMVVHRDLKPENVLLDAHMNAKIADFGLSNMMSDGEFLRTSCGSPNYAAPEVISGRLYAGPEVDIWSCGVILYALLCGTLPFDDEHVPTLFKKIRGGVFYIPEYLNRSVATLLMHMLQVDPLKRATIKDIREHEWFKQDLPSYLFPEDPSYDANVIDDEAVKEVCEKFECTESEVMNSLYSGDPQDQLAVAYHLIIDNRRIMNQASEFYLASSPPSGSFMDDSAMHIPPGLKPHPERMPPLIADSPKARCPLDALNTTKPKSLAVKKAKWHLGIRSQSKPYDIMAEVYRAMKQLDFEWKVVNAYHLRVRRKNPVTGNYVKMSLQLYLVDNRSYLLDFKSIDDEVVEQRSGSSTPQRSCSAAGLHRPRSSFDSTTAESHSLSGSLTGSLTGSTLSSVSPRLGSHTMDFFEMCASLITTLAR
T1 sequence (O43741 whole entry partner): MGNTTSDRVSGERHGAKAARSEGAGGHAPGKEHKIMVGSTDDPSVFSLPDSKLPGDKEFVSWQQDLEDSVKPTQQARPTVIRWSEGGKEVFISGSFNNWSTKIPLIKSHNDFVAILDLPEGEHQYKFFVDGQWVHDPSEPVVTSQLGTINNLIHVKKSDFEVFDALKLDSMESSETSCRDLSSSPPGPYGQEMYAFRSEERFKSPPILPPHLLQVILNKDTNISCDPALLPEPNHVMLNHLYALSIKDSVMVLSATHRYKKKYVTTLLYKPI
Description: To study allosteric activation with a more well-defined AMPK complex, and to study the effects of mutations in individual adenine nucleotide-binding sites on the γ subunit, we expressed a human α2β2γ1 complex in Escherichia coli and purified it utilizing the polyhistidine tag at the N-terminus of the α2 subunit. […] However, it had not been co-expressed with an N-myristoyl transferase so would not have been N-myristoylated on the β2 subunit. The complex was expressed not only with the WT γ1 sequence but also with mutations affecting hydrophobic residues previously shown to be involved in binding of the adenine moieties of nucleotides at CBS1 (L129D/V130D), CBS3 (V276G/L277G) and CBS4 (I312G). All four complexes co-purified as heterotrimeric 1:1:1 complexes as expected, and were phosphorylated and activated equally well either by CaMKK2 or the LKB1: STRADα:MO25α complex (Supplementary Figure S2). For the studies described below we phosphorylated Thr172 using a GST-tagged CaMKK2 and repurified AMPK using size exclusion chromatography and a glutathione-Sepharose column, which remove CaMKK2.
Figure 4. Allosteric activation of WT and mutant human α2β2γ1 AMPK complex by AMP and ADP at three different concentrations of ATP. The α2β2γ1 complex was phosphorylated on Thr172 prior to assay using CaMKK2. The γ1 subunit was either (A/E): WT; (B/F): a CBS1 mutant (L129D/V130D); (C/G): a CBS3 mutant (V276G/L277G); (D/H): a CBS4 mutant (I312G). Results are means of duplicate assays ± SD; error bars are not shown if they were smaller than the symbols used for mean values. Assays and curve fitting were as in Figure 1 at either 0.2 mM (left panels) or 5 mM (right panels) ATP. Best-fit values for all parameters used to generate the curves are listed in Supplementary Table S1.
Sources of antibodies were as described: pThr172 (AMPK-α: Cell Signaling Technologies, Danvers, MA, U.S.A., Cat# 2535), AMPK-α2 [22]. Rat liver AMPK was purified as described previously. Plasmid encoding human (His)6-tagged AMPK (α2β2γ1, bacterially expressed) generated as in [23], was a gift from AstraZeneca, Cambridge, U.K. The L129D/V130D (CBS1), V276G/L277G (CBS3) and I312G (CBS4) mutations in the α2β2γ1 complex were generated using the Quikchange II site-directed mutagenesis kit (Agilent Technologies) and confirmed by DNA sequencing. Human GST-tagged α2 kinase domain (1–310), LKB1:STRAD-α:MO25-α complexes, GST-tagged CaMKK2 [26], and PPM1A (PP2Cα) were produced as described. Bacterially expressed heterotrimers were activated by phosphorylation of Thr172 by GST-tagged CaMKK2 in the presence of ATP, and CaMKK2 was subsequently removed by passage through glutathione-Sepharose. Human GST-tagged α2 kinase domain was activated in a similar manner except that human (His)6-tagged LKB1:STRAD-α:MO25-α complex was used and removed after activation via passage through a His-Trap column. Recombinant human 5′-nucleotidase, CD73, Cat # 5795-EN-01, was from R&D systems (Minneapolis, MN, U.S.A.).
AMPK assays measured the transfer of radioactivity from [γ-^33P]ATP to a peptide substrate, which was separated from unreacted ATP by binding to P81 paper. This assay was described previously except that we used [γ-^33P] rather than [γ-^32P]ATP. In some assays (specified in Figure legends) the concentration of ATP was increased from 0.2 to 1 or 5 mM ATP, with MgCl2 concentrations maintained at a constant 4.8 mM excess above the concentration of ATP [19]. Where allosteric activation by AMP or ADP was being studied, we used the SAMS peptide as substrate. For all other assays the AMARA peptide was used.

[2] = molecular target: T2, human α2β2γ1 complex, CBS4 mutant (I312G) (Homo sapiens, UniProt P54619+P54646, I312G); assay: AMPK activation and Thr172 phosphorylation by the LKB1 complex, CBS4 mutant; format: biochemical; settings: 300 µM nucleotide, 200 µM ATP
T2 construct: made in house; host or cells: Escherichia coli
T2 sequence (P54619 whole entry I312G): as the sequence (P54619 whole entry L129D/V130D) above, with D129L, D130V, I312G counted along it
T2 sequence (P54646 whole entry): as the sequence (P54646 whole entry) above
T2 sequence (O43741 whole entry partner): as the sequence (O43741 whole entry partner) above
Procedure: The relative roles of the three CBS sites in the other two mechanisms of activation of AMPK by AMP or ADP, i.e. promotion of Thr172 phosphorylation by LKB1, and protection against Thr172 dephosphorylation by protein phosphatases, have not been examined previously. As expected, incubation of the α2β2γ1 AMPK complex with a fixed, limiting amount of purified LKB1:STRADα:MO25α complex in the presence of 200 µM Mg.ATP^2− caused a large degree of activation (Figure 5A) and phosphorylation (Figure 5B) of AMPK (unphosphorylated α2β2γ1 complex), which were stimulated more than 2-fold by 300 µM AMP and 1.6-fold by 300 µM ADP.
Figure 5. Effects of AMP or ADP on AMPK activation and Thr172 phosphorylation by the LKB1:STRADα:MO25α complex. Unphosphorylated human α2β2γ1 complexes (WT, or with L129D/V130D, V276G/L277G or I312G mutations affecting CBS1, CBS3 or CBS4 respectively) were incubated with ATP and a fixed concentration of the LKB1:STRADα:MO25α complex in the presence or absence of AMP or ADP (both 300 µM), as described in the Materials and methods section. After the incubation aliquots were withdrawn for (A) AMPK assay or (B) Western blots. […] For (B), due to a limit on the number of lanes that could be run on one gel, single replicates from the triplicate assays were analysed. […]

`Nc1ncnc2c1ncn2[C@@H]1O[C@H](COP(=O)(O)OP(=O)(O)O)[C@@H](O)[C@H]1O` [ADP] was tested. Which “Activation (maximal)” value ([1]; 0.2 mM ATP) did it give?
Its value is “did not cause allosteric activation and none”.

And the IC50 ([1]; 0.2 mM ATP)?
Its IC50 is 1000 µM.

And the “Activation (maximal)” value ([1]; 5.0 mM ATP)?
Its value is “abolished allosteric activation and essentially abolished allosteric activation and none”.

What about the “effect of nucleotide on activation/phosphorylation by LKB1 in the mutant” value [2] of the same compound?
The value was “abolished”.

For `Nc1ncnc2c1ncn2[C@@H]1O[C@H](COP(=O)(O)O)[C@@H](O)[C@H]1O` [AMP], which “Activation (maximal)” value ([1]; 0.2 mM ATP) is on record?
Its value is 2.4 (2.3-2.4) fold.

And the EC50 ([1]; 0.2 mM ATP)?
Its EC50 is 1.6 µM.

And the IC50 ([1]; 0.2 mM ATP)?
The IC50 was 3400 µM.

What about the IC50/EC50 ([1]; 0.2 mM ATP) of the same compound?
The IC50/EC50 was 2100.

And the “Activation (maximal)” value ([1]; 5.0 mM ATP)?
The value was 2.4 fold and 2.3 fold.

What about the EC50 ([1]; 5.0 mM ATP) of the same compound?
The EC50 was 19 µM.

What about the IC50 ([1]; 5.0 mM ATP) of the same compound?
The IC50 was 52000 µM.

What about the IC50/EC50 ([1]; 5.0 mM ATP) of the same compound?
The IC50/EC50 was 2700.

What about the “effect of nucleotide on activation/phosphorylation by LKB1 in the mutant” value [2] of the same compound?
Its value is “abolished”.
